# Measurements published in patent US10940139B2, “Compounds that interact with the Ras superfamily for the treatment of cancers, inflammatory diseases, rasopathies, and fibrotic disease” (Shy Therapeutics LLC, priority 2017, dated 2021).
# Tested on: MIA-PACA2 pancreatic cancer cell lines
# Experiment: Cell proliferation assay, alternate assay conditions (DAPI fluorescence)
# Type: cell-based
# Settings: Homo sapiens, MIA PaCa-2; for inhibition at 10 µM: * = tested at 10 μM, alternate conditions, MIA-PACA2; for IC50: MIA-PACA2, same assay as the % inhibition (alternate conditions)
# Description: Cell lines: Tumor-derived pancreatic cancer cell lines MIA-PACA2 were purchased from ATCC and grown in complete DMEM-High Glucose medium supplemented with penicillin (100 U/mL), streptomycin (100 μg/mL), and 10% heat-inactivated FBS at 37° C. in a humidified incubator with 5% CO2.
# Method: Cells are plated at 4000 cells/well density in 96-wells plate. The next day tested small molecules are added to the cells in the final concentration of 10 μM in the presence of 0.3% DMSO and 10% FBS. After small molecules addition, cells are incubated for 4 days at 37° C. in a humidified incubator with 5% CO2. For IC50 value determination, serial dilutions of compounds were added to cells under the same conditions.
# Assay: At the end of the incubation period, cell cultures are fixed with a 50-50 mixture (v/v) acetone-methanol for 10 minutes at −20° C., followed by rehydration in PBS for 10 minutes at room temperature. After rehydration, cells are stained with DAPI (1 μg/ml) in PBS for 10 minutes at room temperature, followed by 3 washes with PBS. After staining, DAPI fluorescence is recorded (358 nm excitation/461 nm emission) with the 96-well plate reader Molecular Devices Spectramax M3; degree of small mole-cule-dependent proliferation inhibition is calculated from raw data assuming No Serum cells value as 100%.
Structure (SMILES),inhibition at 10 µM [%],IC50 [nM]
OCC1(c2ccc(-c3nc(-c4ccccn4)nc(-c4ccc(C5(CO)CC5)cc4)c3Oc3ccccc3)cc2)CC1 [drawing 1834],76 to 100,–
COc1ccc(COC[C@H]2O[C@@H](c3csc4c(=O)[nH]c(-c5ccccn5)nc34)[C@H](O)[C@@H]2O)cc1 [drawing 1835],1 to 25,–
OCC1(c2ccc(-c3nc(-c4ccccn4)nc(O)c3Oc3ccccc3)cc2)CC1 [drawing 1836],76 to 100,–
COCCNc1nc(-c2nccn2C)nc2sc(-c3ccccc3)c(-c3ccccc3)c12 [drawing 1837],76 to 100,501 to 1000
Cn1ccnc1-c1nc(O)c2c(-c3ccccc3)c(-c3ccccc3)sc2n1 [drawing 1838],76 to 100,–
Cn1cnc(-c2nc(O)c3c(-c4ccccc4)c(-c4ccc(CNC(=O)OC(C)(C)C)cc4)sc3n2)c1 [drawing 1839],25 to 50,–
COCCNc1nc(-c2ccccn2)nc2c1c(-c1ccccc1)nn2-c1ccccn1 [drawing 1840],76 to 100,–
Oc1nc(-c2ccccn2)nc2c1c(-c1ccccc1)nn2-c1ccccn1 [drawing 1841],76 to 100,–
COc1nc(-c2ccccn2)nc2c1c(-c1ccccc1)nn2-c1ccccn1 [drawing 1842],76 to 100,–
Nc1nc(O)c2sc(-c3cccc(C(=O)NC4CCNC4=O)c3)cc2n1 (centres unmarked) [drawing 1844],0,–
Nc1nc(O)c2sc(-c3cccc(C(=O)N4CCC(O)C4)c3)cc2n1 (centres unmarked) [drawing 1845],1 to 25,–
NC(=O)C1CCCN1C(=O)c1cccc(-c2cc3nc(N)nc(O)c3s2)c1 (centres unmarked) [drawing 1846],51 to 75,–
Nc1nc(O)c2sc(-c3cccc(C(=O)NCc4ncc[nH]4)c3)cc2n1 [drawing 1847],1 to 25,–
Nc1nc(O)c2sc(-c3cccc(C(=O)NCc4cccc(O)n4)c3)cc2n1 [drawing 1848],1 to 25,–
COC(=O)c1nc(-c2ccccn2)nc(O)c1O [drawing 1849],25 to 50,–
Oc1nc(-c2ccccn2)nc2c(-c3ccccc3)c(-c3ccncc3)sc12 [drawing 1850],76 to 100,–
Cn1cnc(-c2nc(O)c3sc(-c4ccncc4)c(-c4ccccc4)c3n2)c1 [drawing 1851],76 to 100,–
COCC(C)Nc1nc(-c2ccccn2)nc(C(=O)NCCCc2c[nH]cn2)c1Oc1ccccc1 (centres unmarked) [drawing 1852],76 to 100,–
Nc1nc(-c2ccccn2)nc(C(=O)NCCc2ccncc2)c1Oc1ccccc1 [drawing 1853],76 to 100,–
COc1nc(-c2ccccn2)nc(Oc2cccc(C(F)(F)F)c2)c1OC [drawing 1854],76 to 100,–
Oc1nc(-c2ccccn2)nc2c(Br)c(-c3ccccc3)sc12 [drawing 1855],76 to 100,–
CC(C)(C)c1sc2c(O)nc(-c3ccccn3)nc2c1Br [drawing 1856],76 to 100,–
Cc1ccc(-c2cc3nc(-c4ccccn4)nc(O)c3s2)cc1 [drawing 1857],76 to 100,–

Structure (SMILES),inhibition at 10 µM [%],IC50 [nM]
Oc1nc(-c2ccccn2)nc2cc(-c3ccccc3Cl)sc12 [drawing 1858],76 to 100,–
COc1c(O)nc(-c2ccccn2)nc1Oc1cccc(C(F)(F)F)c1 [drawing 1859],76 to 100,–
Oc1nc(-c2ccccn2)nc(Oc2cccc(C(F)(F)F)c2)c1O [drawing 1860],76 to 100,–
Oc1nc(-c2ccccn2)nc2cc(-c3ccc(-c4ccccc4)cc3)sc12 [drawing 1861],76 to 100,–
Cc1ccc(-c2csc3c(O)nc(-c4ccccn4)nc23)cc1 [drawing 1862],76 to 100,–
Oc1nc(-c2ccccn2)nc2cc(-c3ccncc3)sc12 [drawing 1863],76 to 100,–
Oc1nc(-c2ccccn2)nc2cc(-c3ccccc3)sc12 [drawing 1864],76 to 100,–
COc1ccc(-c2cc3nc(-c4ccccn4)nc(O)c3s2)cc1 [drawing 1865],76 to 100,–
Oc1nc(-c2ccccn2)nc2cc(-c3cccc(Br)c3)sc12 [drawing 1866],76 to 100,–
COc1nc(-c2ccccn2)nc(Oc2cccc(C(F)(F)F)c2)c1O [drawing 1867],1 to 25,–
COCCN(C)c1nc(-c2nccn2C)nc2sc(-c3ccccc3)c(-c3ccccc3)c12 [drawing 1868],76 to 100,> 1000
CC(C)OCCNc1nc(-c2nccn2C)nc2sc(-c3ccccc3)c(-c3ccccc3)c12 [drawing 1869],76 to 100,–
Cn1ccnc1-c1nc(NCCOC(F)(F)F)c2c(-c3ccccc3)c(-c3ccccc3)sc2n1 [drawing 1870],76 to 100,–
CC(O)CNc1nc(-c2nccn2C)nc2sc(-c3ccccc3)c(-c3ccccc3)c12 (centres unmarked) [drawing 1871],76 to 100,–
COCCCNc1nc(-c2nccn2C)nc2sc(-c3ccccc3)c(-c3ccccc3)c12 [drawing 1872],76 to 100,501 to 1000
COC1CCN(c2nc(-c3nccn3C)nc3sc(-c4ccccc4)c(-c4ccccc4)c23)C1 (centres unmarked) [drawing 1873],76 to 100,501 to 1000
CCOCCOc1nc(-c2nccn2C)nc2sc(-c3ccccc3)c(-c3ccccc3)c12 [drawing 1874],76 to 100,–
CCN(CC)CCOc1nc(-c2nccn2C)nc2sc(-c3ccccc3)c(-c3ccccc3)c12 [drawing 1875],76 to 100,–
COCCNc1nc(-c2ccncn2)nc2sc(-c3ccccc3)c(-c3ccccc3)c12 [drawing 1876],51 to 75,–
CCOCCNc1nc(-c2nccn2C)nc2sc(-c3ccccc3)c(-c3ccccc3)c12 [drawing 1877],76 to 100,501 to 1000
Cn1ccnc1-c1nc(NCCOC2CC2)c2c(-c3ccccc3)c(-c3ccccc3)sc2n1 [drawing 1878],76 to 100,–
COCC(C)Nc1nc(-c2nccn2C)nc2sc(-c3ccccc3)c(-c3ccccc3)c12 (centres unmarked) [drawing 1879],76 to 100,501 to 1000
CC(CO)Nc1nc(-c2nccn2C)nc2sc(-c3ccccc3)c(-c3ccccc3)c12 (centres unmarked) [drawing 1880],76 to 100,–

Structure (SMILES),inhibition at 10 µM [%],IC50 [nM]
Cn1ccnc1-c1nc(NCCCO)c2c(-c3ccccc3)c(-c3ccccc3)sc2n1 [drawing 1881],76 to 100,–
COCCNc1nc(-c2nccn2C)nc2sc(-c3ccccc3)c(-c3ccccc3Cl)c12 [drawing 1882],76 to 100,> 1000
COCCNc1nc(-c2nccn2C)nc2sc(-c3ccccc3Cl)c(-c3ccccc3)c12 [drawing 1883],76 to 100,501 to 1000
COCCNc1nc(-c2nccn2C)nc2sc(-c3ccncc3)c(-c3ccccc3)c12 [drawing 1884],76 to 100,–
COCCNc1nc(-c2cn(C)cn2)nc2sc(-c3ccccc3)c(-c3ccccc3)c12 [drawing 1885],76 to 100,> 1000
COCCNc1nc(-c2nccn2C)nc2sc(C)c(-c3ccccc3)c12 [drawing 1886],76 to 100,501 to 1000
COCCNc1nc(-c2cn(C)cn2)nc2sc(C)c(-c3ccccc3)c12 [drawing 1887],76 to 100,–
COCCNc1nc(-c2nccn2C)nc2sc(-c3cccc(OC)c3)c(-c3ccccc3)c12 [drawing 1888],76 to 100,–
CC(C)COc1ccc(-c2c(-c3ccccc3)sc3c(O)nc(-c4nccn4C)nc23)cn1 [drawing 1889],76 to 100,100 to 500
Cn1ccnc1-c1nc(O)c2sc(-c3ccccc3)c(-c3ccccc3)c2n1 [drawing 1890],51 to 75,–
COCCNc1nc(-c2nccn2C)nc2sc(-c3ccccc3)c(-c3ccc(OC)cc3)c12 [drawing 1891],76 to 100,501 to 1000
COCCNc1nc(-c2nccn2C)nc2sc(C3CCOCC3)c(-c3ccccc3)c12 [drawing 1892],76 to 100,–
COCCNc1nc(-c2cccc(N)n2)nc2sc(-c3ccccc3)c(-c3ccccc3)c12 [drawing 1893],76 to 100,–
Cn1ccnc1-c1nc(O)c2sc(-c3ccccc3)c(-c3cccc(C(F)(F)F)c3)c2n1 [drawing 1894],25 to 50,–
COc1ccc(-c2c(-c3ccccc3)sc3c(O)nc(-c4nccn4C)nc23)cn1 [drawing 1895],76 to 100,501 to 1000
Cc1sc2c(O)nc(-c3nccn3C)nc2c1-c1ccccc1 [drawing 1896],76 to 100,–
Cn1ccnc1-c1nc(O)c2sc(-c3ccccc3)c(-c3ccccc3Cl)c2n1 [drawing 1897],76 to 100,100 to 500
COCCNc1nc(-c2nccn2C)nc2sc(-c3ccccc3)c(-c3ccncc3)c12 [drawing 1898],76 to 100,–
COCCNc1nc(-c2nccn2C)nc2sc(-c3ccc(OC)cc3)c(-c3ccccc3)c12 [drawing 1899],76 to 100,100 to 500
Cn1ccnc1-c1nc(O)c2scc(-c3cccc(C(F)(F)F)c3)c2n1 [drawing 1900],76 to 100,> 1000
Cc1sc2c(O)nc(-c3nccn3C)nc2c1-c1cccc(C(F)(F)F)c1 [drawing 1901],76 to 100,100 to 500
Cc1sc2c(O)nc(-c3nccn3C)nc2c1-c1ccc(OCC(C)C)nc1 [drawing 1902],76 to 100,–
COc1ccc(-c2c(C)sc3c(O)nc(-c4nccn4C)nc23)cn1 [drawing 1903],25 to 50,–
